Activity calls are given as the source filed them.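 Rule for the calls: active = half-inhibition concentration IC50 of 10 µM or lower; inactive = IC50 above 10 µM.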
Each molecule was assayed against Disintegrin and metalloproteinase domain-containing protein 10 (Homo sapiens) (UniProt O14672) (assay: potency of ADAM10 substrate cleavage blockers – biochemical, QFRET, dose response (AID 743254)). Conditions: ADAM10 QFRET peptide cleavage, EDANS fluorescence, 3 h.
Sequence of Disintegrin and metalloproteinase domain-containing protein 10 (Homo sapiens) (O14672 214-748 limits assumed): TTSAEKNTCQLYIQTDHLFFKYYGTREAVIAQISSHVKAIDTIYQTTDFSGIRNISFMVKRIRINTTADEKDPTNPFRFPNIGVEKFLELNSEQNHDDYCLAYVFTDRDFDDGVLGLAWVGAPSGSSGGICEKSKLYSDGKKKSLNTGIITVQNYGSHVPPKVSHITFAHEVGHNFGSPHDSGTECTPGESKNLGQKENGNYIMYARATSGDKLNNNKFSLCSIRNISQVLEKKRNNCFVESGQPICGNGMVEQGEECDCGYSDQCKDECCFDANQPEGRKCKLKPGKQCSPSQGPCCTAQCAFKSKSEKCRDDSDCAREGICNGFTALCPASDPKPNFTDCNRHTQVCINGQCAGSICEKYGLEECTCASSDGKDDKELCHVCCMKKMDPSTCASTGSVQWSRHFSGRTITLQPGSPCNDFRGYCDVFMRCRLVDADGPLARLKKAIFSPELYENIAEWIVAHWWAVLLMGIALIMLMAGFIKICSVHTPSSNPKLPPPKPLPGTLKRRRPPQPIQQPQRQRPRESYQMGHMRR

SMILES	IC50
O=C(Nc1cccc(S(=O)(=O)Nc2ccc(Cl)cc2)c1)c1cc2c(s1)CCCC2	> 69.5 µM (inactive)
O=C(NNC(=O)c1cc(-c2ccc(Cl)cc2)nc2ccccc12)c1csc(N2CCOCC2)n1	> 69.5 µM (inactive)
O=C(OCc1csc(Nc2ccccc2)n1)c1ccc(Cl)cc1	inactive
Cc1ccc(NS(=O)(=O)c2ccc(Cl)c(NC(=S)NC(=O)C3CCCCC3)c2)cc1Cl	inactive
Fc1c(F)c(C(F)(F)F)c(F)c(F)c1N/N=C\c1cccs1	> 69.5 µM (inactive)
O=C(Nc1ccc(OCC(F)(F)C(F)F)c(C(F)(F)F)c1)c1ccc(Cl)cc1	7.43 µM
COc1ccc(C(Nc2cc(C)ccn2)c2ccc3ccc(C)nc3c2O)cc1 (stereo not given)	7.23 µM
COc1ccc(S(=O)(=O)Nc2cc3c4c(oc3c3ccccc23)CC(C)(C)CC4=O)cc1	> 69.5 µM (inactive)
CC(=O)c1ccc(N2CCC(c3cc(-c4ccc(Cl)cc4Cl)n[nH]3)CC2)c([N+](=O)[O-])c1	inactive
Cc1cc(C)c(CSc2ncc(-c3ccc([N+](=O)[O-])cc3)[nH]2)c(C)c1	inactive
O=[N+]([O-])c1ccc(O)c(/C=N/Nc2ccccn2)c1	inactive
O=[N+]([O-])c1ccc(S(=O)(=O)Nc2ccc(-c3csc(-c4ccccc4)n3)cc2)cc1	inactive
O=C1OCCN1C(=O)[C@H]1[C@H](c2ccc([N+](=O)[O-])cc2)C(c2cccc(Cl)c2)=NN1c1ccc(Br)cc1	inactive
C=C(C)COc1ccc(-c2[nH]ncc2Oc2cccc(OC)c2)c(O)c1	7.45 µM
Cc1cccc(C)c1OCC(O)Cn1c2ccccc2c2ccccc21 (stereo not given)	> 69.5 µM (inactive)
CCCN(CC(=O)Nc1cc(Cl)cc(Cl)c1)CC(=O)Nc1ccc(F)c(F)c1F	inactive
COc1ccc(-c2cn[nH]c2-c2ccc(OCc3ccccc3)cc2O)cc1	9.61 µM
O=C1CC(N(CCc2ccccc2)C(=S)Nc2cc(Cl)ccc2Cl)C(=O)N1c1c(Cl)cccc1Cl (stereo not given)	> 69.5 µM (inactive)

SMILES	IC50
COc1ccc(-c2ccc(-c3noc(-c4cccc(OC)c4)n3)c(OC)n2)cc1	> 69.5 µM (inactive)
O=C1OCCN1C(=O)[C@H]1[C@H](c2ccc([N+](=O)[O-])cc2)C(c2ccc(F)cc2)=NN1c1ccc(Br)cc1	inactive
O=[N+]([O-])c1cccnc1N1CCC(c2cc(-c3ccc(Cl)cc3)n[nH]2)CC1	8.8 µM
O=C(NNC(=O)c1cc(-c2ccccc2)nc2ccccc12)Nc1cccc(Cl)c1	> 69.5 µM (inactive)
O=[N+]([O-])c1ccc(-c2nc(-c3cccs3)c(-c3cccs3)[nH]2)cc1	> 69.5 µM (inactive)
COc1cc(/C=N/O)cc(Br)c1OCc1ccc(Cl)cc1	> 69.5 µM (inactive)
COc1ccc(CCN2C(=O)c3[nH]nc(-c4ccccc4O)c3C2c2cccc(Cl)c2)cc1 (stereo not given)	inactive
C(=C\c1ccccc1)/C=N/Nc1nc2ccccc2s1	> 69.5 µM (inactive)
COC(=O)c1ccc(N2CCC(c3cc(-c4ccc(OC)cc4)n[nH]3)CC2)c([N+](=O)[O-])c1	> 69.5 µM (inactive)
O=[N+]([O-])c1cc(S(=O)(=O)Nc2ccccc2)ccc1N1CCN(c2ccccc2)CC1	inactive
CCOC(=O)c1c(CSc2ccc(C)cc2)oc2ccc(O)cc12	inactive
O=C(Nc1ccc(N2CCCC2)c(S(=O)(=O)Nc2cccc(C(F)(F)F)c2)c1)c1cccs1	> 69.5 µM (inactive)
C=C(C)COc1ccc(-c2[nH]ncc2Oc2ccc(OC)cc2)c(O)c1	5.44 µM
N#Cc1c(Cl)nc(N/N=C/c2ccccc2)c(Cl)c1Cl	> 69.5 µM (inactive)
CCc1ccc(NC(=O)c2ccc(F)c(S(=O)(=O)NCC3COc4ccccc4O3)c2)cc1 (stereo not given)	inactive
O=C(NNc1ccccc1Br)C(O)(c1cccc(C(F)(F)F)c1)c1cccc(C(F)(F)F)c1	inactive
Oc1ccc(Cl)cc1-c1cc(-c2cccc(Br)c2)n[nH]1	> 69.5 µM (inactive)

Reference: PubChem BioAssay AID743254 (The Scripps Research Institute Molecular Screening Center, 2014)
